From patent US20220112178A1, “Small Molecule Modulators of RAS GTPase” (Tosk, Inc., priority 2020, published 2022)

Test system: SW620 cells
Assay: Cell proliferation / cytotoxicity assay (CellTiter-Glo) in SW620 cells
Format: cell-based
Conditions: SW620 cells (ATCC CCL-227), 72 hours, CellTiter-Glo 2.0 luminescence
Description: Compounds are assayed for inhibition of cell proliferation and killing cancer cells. Cytotoxicity assays are conducted according to the following general procedure. SW620 cells (ATCC CCL-227) are maintained in DMEM Low Glucose (Corning 10-014-CV) media supplemented with 10% fetal bovine serum and 1% PenStrep and grown at 37° C. in 5% CO2. Cells are plated into 96 well flat bottom plates (2 million/plate, ˜20,000/well, 200 μL media/well). The cells are allowed to settle and adhere to the plate bottom overnight. Compounds are diluted in media from a 10 mM stock solution starting at 50 μM, using 2-fold dilutions, in a column in a 96-well plate. Media is removed from the plate containing cells and replaced with media containing diluted compounds, Plates are incubated 72 hours at 37° C. in 5% CO2. Plates are allowed to come to room temperature and 100 μL CellTiter-Glo 2.0 reagent (Promega, G924C) is added at room temperature. Plates are shaken for 2 minutes, then allowed to stand for 15 minutes. Luminescence is read with FLx800 (BioTek Instruments). Data is plotted with GraphPad Prizm 8.0.

SMILES	IC50 (Homo sapiens, SW-620)	further results
Cc1nc(N[C@@H]2CC[C@H](NC(=O)c3nnn(C(C)(C)C)n3)C2)nc2ccc(-c3ccnc4c3OCCO4)cc12 [Compound 47]	< 5 µM	
Cc1nc(N[C@@H]2CC[C@H](NC(=O)OCc3ncco3)C2)nc2ccc(-c3ccnc4c3OCCO4)cc12 [Compound 35]	< 5 µM	
Cc1nc(N[C@@H]2CC[C@H](NC(=O)OC[C@@H]3CCCN3C)C2)nc2ccc(-c3ccnc4c3OCCO4)cc12 [Compound 38]	< 5 µM	
Cc1nc(N[C@@H]2CC[C@H](NC(=O)OC(C)(C)C)C2)nc2ccc(-c3ccnc4c3OCCO4)cc12 [Compound 4]	< 5 µM	
Cc1nc(N[C@@H]2CC[C@H](NC(=O)Cn3cccn3)C2)nc2ccc(-c3cccc4c3CCCC4)cc12 [Compound 29]	< 5 µM	
Cc1ccc2ccc(F)c(-c3ccc4nc(N[C@@H]5CC[C@@H](NC(=O)OC(C)(C)C)C5)nc(C)c4c3)c2n1 [Compound 12]	5 to 10 µM	
C=CC(=O)N[C@H]1CC[C@@H](Nc2nc(C)c3cc(-c4ccnc5c4OCCO5)ccc3n2)C1 [Compound 42]	< 5 µM	
Cc1ccc2ccc(F)c(-c3ccc4nc(N[C@H]5CC[C@@H](NC(=O)OC(C)(C)C)C5)nc(C)c4c3)c2n1 [Compound 28]	5 to 10 µM	
COc1ncccc1-c1ccc2nc(N[C@@H]3CC[C@H](NC(=O)OC(C)(C)C)C3)nc(C)c2c1 [Compound 31]	5 to 10 µM	
Cc1nc(N[C@@H]2CC[C@@H](NC(=O)OC(C)(C)C)C2)nc2ccc(-c3ccnc4c3OCCO4)cc12 [Compound 11]	< 5 µM	
Cc1nn(C)c(C(=O)N[C@H]2CC[C@@H](Nc3nc(C)c4cc(-c5ccnc6c5OCCO6)ccc4n3)C2)c1Cl [Compound 13]	< 5 µM	
Cc1nc(N[C@@H]2CC[C@H](NC(=O)c3ccc(Cl)cc3)C2)nc2ccc(-c3cccc4c3OCCO4)cc12 [Compound 2]	5 to 10 µM	
Cc1nccc(-c2ccc3nc(N[C@@H]4CC[C@H](NC(=O)OC(C)(C)C)C4)nc(C)c3c2)c1Cl [Compound 16]	5 to 10 µM	
Cc1nc(N[C@@H]2CC[C@H](NC(=O)c3nnn(C(C)(C)C)n3)C2)nc2ccc(-c3ccnc4c3OCCO4)c(F)c12 [Compound 48]	< 5 µM	
Cc1nc(N[C@@H]2CC[C@H](NS(=O)(=O)c3ccc(C#N)cc3)C2)nc2ccc(-c3ccnc4c3OCCO4)cc12 [Compound 32]	< 5 µM	
Cc1nc(N[C@@H]2CC[C@H](N3Cc4ccccc4CC3=O)C2)nc2ccc(-c3cccc4c3OCCO4)cc12 [Compound 3]	5 to 10 µM	
Cc1nc(N[C@@H]2CC[C@H](NC(=O)OC(C)(C)C)C2)nc2ccc(-c3ccnc4c3OCCO4)cc12 [Compound 17]		IC50: < 5 µM
Cc1nc(N[C@@H]2CC[C@H](NC(=O)O[C@@H]3CCN(C)C3)C2)nc2ccc(-c3ccnc4c3OCCO4)cc12 [Compound 39]	< 5 µM	
Cc1nc(N[C@@H]2CC[C@H](NC(=O)OC(C)(C)C)C2)nc2ccc(-c3cc[n+]([O-])c4c3OCCO4)cc12 [Compound 45]	< 5 µM	
Cc1nc(N[C@H]2CC[C@@H](NC(=O)OC(C)(C)C)C2)nc2ccc(-c3ccnc4c3OCCO4)cc12 [Compound 18]	< 5 µM	
Cc1nc(N[C@@H]2CC[C@H](NC(=O)C(C)(C)C)C2)nc2ccc(-c3ccnc4c3OCCO4)cc12 [Compound 27]	< 5 µM	
Cc1nc(N[C@@H]2CCN(Cc3ccc(Cl)cc3)C2)nc2ccc(-c3cccc4c3CCCC4)cc12 [Compound 92]		IC50 (Homo sapiens, SW-620, Table 2): 5 to 10 µM
Cc1nc(N[C@@H]2CC[C@H](NC(=O)OC[C@H]3CCCN3C)C2)nc2ccc(-c3ccnc4c3OCCO4)cc12 [Compound 37]	< 5 µM	

SMILES	IC50 (Homo sapiens, SW-620)	further results
Cc1ncccc1C(=O)N[C@H]1CC[C@@H](Nc2nc(C)c3cc(-c4ccnc5c4OCCO5)ccc3n2)C1 [Compound 14]	< 5 µM	
Cc1nc(N[C@@H]2CC[C@H](NC(=O)OCc3nccn3C)C2)nc2ccc(-c3ccnc4c3OCCO4)cc12 [Compound 34]	< 5 µM	
Cc1nccc(-c2ccc3nc(N[C@@H]4CC[C@H](NC(=O)c5ccc(Cl)cc5)C4)nc(C)c3c2)c1Cl [Compound 9]	< 5 µM	
Cc1nc(N[C@@H]2CC[C@H](NC(=O)OC(C)(C)C)C2)nc2ccc(-c3cccc4c3OCCO4)cc12 [Compound 1]	5 to 10 µM	
Cc1nc(N[C@@H]2CC[C@H](NC(=O)OC(C)(C)C)C2)nc2ccc(-c3c(Cl)cnc4c3OCCO4)cc12 [Compound 44]	< 5 µM	
Cc1nc(N[C@@H]2CC[C@H](N3CCNC3=O)C2)nc2ccc(-c3ccnc4c3OCCO4)cc12 [Compound 26]	5 to 10 µM	
Cc1nc(N[C@@H]2CC[C@H](NC(=O)c3ccc(Cl)cc3)C2)nc2ccc(-c3cccc4c3CCCC4)cc12 [Compound 5]	< 5 µM	
Cc1nc(N[C@@H]2CC[C@H](NC(=O)c3ccccc3Cl)C2)nc2ccc(-c3ccnc4c3OCCO4)cc12 [Compound 6]	< 5 µM	
Cc1nc(N[C@@H]2CC[C@H](N3Cc4ccccc4CC3=O)C2)nc2ccc(-c3ccnc4c3OCCO4)cc12 [Compound 7]	5 to 10 µM	
Cc1nc(N[C@@H]2CC[C@H](N)C2)nc2ccc(-c3ccnc4c3OCCO4)cc12 [Compound 10]	5 to 10 µM	
Cc1nc(N[C@@H]2CC[C@H](NC(=O)OC(C)(C)C)C2)[n+]([O-])c2ccc(-c3ccnc4c3OCCO4)cc12 [Compound 46]	< 5 µM	
COc1c(Cl)cccc1-c1ccc2nc(N[C@@H]3CC[C@H](NC(=O)OC(C)(C)C)C3)nc(C)c2c1 [Compound 22]	5 to 10 µM	
Cc1nc(N[C@@H]2CC[C@H](NC(=O)OCc3ccon3)C2)nc2ccc(-c3ccnc4c3OCCO4)cc12 [Compound 36]	< 5 µM	
Cc1nc(N[C@@H]2CC[C@H](NC(=O)OC(C)(C)C)C2)nc2ccc(-c3ccnc4c3OCCO4)cc12 [Compound 19]		IC50: < 5 µM
Cc1ccc2ccc(F)c(-c3ccc4nc(N[C@@H]5CC[C@H](NC(=O)OC(C)(C)C)C5)nc(C)c4c3)c2n1 [Compound 15]	5 to 10 µM	
Cc1nc(N[C@@H]2CC[C@H](NC(=O)O[C@H]3CCN(C)C3)C2)nc2ccc(-c3ccnc4c3OCCO4)cc12 [Compound 33]	< 5 µM	
Cc1nc(N[C@H]2CCN(Cc3ccc(Cl)cc3)C2)nc2ccc(-c3cccc4c3CCCC4)cc12 [Compound 91]		IC50 (Homo sapiens, SW-620, Table 2): < 5 µM
Cc1cc(COC(=O)N[C@H]2CC[C@@H](Nc3nc(C)c4cc(-c5ccnc6c5OCCO6)ccc4n3)C2)on1 [Compound 41]	< 5 µM	
Cc1ccc2ccc(F)c(-c3ccc4nc(N[C@@H]5CC[C@H](NC(=O)OC(C)(C)C)C5)nc(C)c4c3)c2n1 [Compound 30]		IC50: 5 to 10 µM
COc1nccc(-c2ccc3nc(N[C@@H]4CC[C@H](NC(=O)OC(C)(C)C)C4)nc(C)c3c2)c1Cl [Compound 21]	5 to 10 µM	
Cc1nc(N[C@@H]2CC[C@H](NC(=O)OC(C)(C)C)C2)nc2ccc(-c3ccnc4c3OCCO4)c(F)c12 [Compound 43]	< 5 µM	
Cc1nc(N[C@@H]2CC[C@H](NC(=O)OCc3ccno3)C2)nc2ccc(-c3ccnc4c3OCCO4)cc12 [Compound 40]	< 5 µM	
Cc1nc(N[C@@H]2CC[C@H](NC(=O)c3ccc(Cl)cc3)C2)nc2ccc(-c3ccnc4c3OCCO4)cc12 [Compound 8]	< 5 µM	
